Results: patent publication US11780832B2, “Lactivicin compounds, their preparation and use as antibacterial agents” (priority 2021, dated 2023)
≈ marks a conversion by molar mass, not a printed value.

Tests used:
Test in all cases: MIC, CLSI broth microdilution
Format in all cases: cell-based
[1] = tested on: Klebsiella aerogenes VIM-1, SHV-12
Description: (§1) Gram-negative and Gram-positive bacterial strains used during the in vitro minimum inhibitory concentration (MIC) determination were obtained either from the American Type Culture Collection (ATCC) or from clinical specimens. All strains were characterized genotypically and the respective antibiotic resistance markers for each strain were identified.
(§2) Isolates were sub-cultured onto appropriate media and stocked in skim milk at −80° C. Following two subcultures from frozen stock, in vitro antimicrobial susceptibility testing was performed using the Clinical and Laboratory Standards Institute (CLSI) broth microdilution method. Briefly, fresh cultures were suspended in culture media to give a final stock inoculum size of 5×10^7 colony forming units per milliliter of broth (CFU/mL). […] 100 μL of the stock solutions were added to the first wells in a 96-well plate and were then diluted using a 2-fold dilution method to give a range of 32-0.025 μg/mL. 100 μL of the bacterial suspensions were then added to the 96-well plates to give a final working inoculum size of 5×10^5 CFU/mL. The final compound concentration range was 16-0.0125 μg/mL. […] MICs for comparator agents were determined using custom-designed, in-house prepared 96-well broth microdilution panels.

[2] = tested on: Escherichia coli Isogenic TEM-26
Description: as §1, §2

[3] = tested on: Pseudomonas aeruginosa AmpC overexpressed
Description: as §1, §2

[4] = tested on: Klebsiella oxytoca KPC-2, TEM-1; settings: KPC-2, TEM-1, read-out: MIC
Description: as §1, §2

[5] = tested on: Serratia marcescens SME-2; settings: SME2
Description: as §1, §2

[6] = tested on: Escherichia coli Isogenic TEM-10
Description: as §1, §2

[7] = tested on: Pseudomonas aeruginosa ATCC 27853; settings: ATCC27853
Description: as §1, §2

[8] = tested on: Klebsiella pneumoniae KPC-2; settings: KPC2
Description: as §1, §2

[9] = tested on: Escherichia coli SHV-12; settings: SHV12
Description: as §1, §2

[10] = tested on: Klebsiella pneumoniae KPC-3; settings: KPC3, KPC-3, read-out: MIC
Description: as §1, §2

[11] = tested on: Klebsiella pneumoniae OXA-48, SHV-1
Description: as §1, §2

[12] = tested on: Pseudomonas aeruginosa OprD negative
Description: as §1, §2

[13] = tested on: Serratia marcescens AmpC overexpressed
Description: as §1, §2

[14] = tested on: Enterobacter cloacae species complex NDM-1
Description: as §1, §2

[15] = tested on: Klebsiella pneumoniae SHV-12; settings: SHV12, SHV-12, read-out: MIC
Description: as §1, §2

[16] = tested on: Acinetobacter baumannii ATCC 19606; settings: ATCC19606
Description: as §1, §2

[17] = tested on: Escherichia coli ATCC 25922; settings: ATCC25922
Description: as §1, §2

[18] = tested on: Escherichia coli pSMART_Ecloacae_AmpC
Description: as §1, §2

[19] = tested on: Escherichia coli CMY-2; settings: CMY2
Description: as §1, §2

[20] = tested on: Citrobacter freundii species complex OXA-181; settings: Citrobacter freundii species complex, OXA-181; read-out: MIC
Description: as §1, §2

[21] = tested on: Escherichia coli CTX-M-15; settings: CTXM15
Description: as §1, §2

[22] = tested on: Escherichia coli Empty pSMART plasmid
Description: as §1, §2

[23] = tested on: Escherichia coli pSMART_Cfreundii_AmpC
Description: as §1, §2

[24] = tested on: Klebsiella pneumoniae OXA-163, OXA-1_OXA-30, SHV-1, TEM-1
Description: as §1, §2

Structure (SMILES)	MIC [1] [µg/mL]	MIC [2] [µg/mL]	MIC [3] [µg/mL]	MIC [4] [µg/mL]	MIC [5] [µg/mL]	MIC [6] [µg/mL]	MIC [7] [µg/mL]	MIC [8] [µg/mL]	MIC [9] [µg/mL]	MIC [10] [µg/mL]	MIC [11] [µg/mL]	MIC [12] [µg/mL]	MIC [13] [µg/mL]	MIC [14] [µg/mL]	MIC [15] [µg/mL]	MIC [16] [µg/mL]	MIC [17] [µg/mL]	MIC [18] [µg/mL]	MIC [19] [µg/mL]	MIC [20] [µg/mL]	also measured
Nc1nc(/C(=N/OC2(C(=O)O)CCC2)C(=O)N[C@H]2CON(C3(C(=O)O)C[C@H](N4C(=O)c5cc(O)c(O)cc5C4=O)C(=O)O3)C2=O)cs1 (stereo partly drawn) [Cmpd 4, (4S)-2-[(4S)-4-{[(2Z)-2-(2-amino-1,3-thiazol-4-yl)-2-{[(1-carboxycyclobutyl)oxy]imino}acetyl]amino}-3-oxo-1,2-oxazolidin-2-yl]-4-(5,6-dihydroxy-1,3-dioxo-1,3-dihydro-2H-isoindol-2-yl)-5-oxooxolane-2-carboxylic acid]	1 (≈ 1.48 µM)	0.06 (≈ 0.0889 µM)	1 (≈ 1.48 µM)	≤ 0.015	0.06 (≈ 0.0889 µM)	0.03 (≈ 0.0445 µM)	0.25 (≈ 0.371 µM)	0.06 (≈ 0.0889 µM)	1 (≈ 1.48 µM)	0.03 (≈ 0.0445 µM)	≤ 0.015	1 (≈ 1.48 µM)	0.12 (≈ 0.178 µM)	0.25 (≈ 0.371 µM)	0.03 (≈ 0.0445 µM)	0.12 (≈ 0.178 µM)	0.25 (≈ 0.371 µM)	0.06 (≈ 0.0889 µM)	2 (≈ 2.96 µM)	0.06 (≈ 0.0889 µM)	MIC [21]: 1 µg/mL (≈ 1.48 µM); MIC [22]: ≤ 0.015 µg/mL; MIC [23]: 0.12 µg/mL (≈ 0.178 µM); MIC [24]: 0.06 µg/mL (≈ 0.0889 µM)
Nc1nc(/C(=N/OC2(C(=O)O)COC2)C(=O)N[C@H]2CON(C3(C(=O)O)C[C@H](N4C(=O)c5cc(O)c(O)cc5C4=O)C(=O)O3)C2=O)cs1 (stereo partly drawn) [Cmpd 5, (4S)-2-[(4S)-4-{[(2Z)-2-(2-amino-1,3-thiazol-4-yl)-2-{[(3-carboxyoxetan-3-yl)oxy]imino}acetyl]amino}-3-oxo-1,2-oxazolidin-2-yl]-4-(5,6-dihydroxy-1,3-dioxo-1,3-dihydro-2H-isoindol-2-yl)-5-oxooxolane-2-carboxylic acid]	2 (≈ 2.96 µM)	0.03 (≈ 0.0443 µM)	1 (≈ 1.48 µM)	≤ 0.015	0.12 (≈ 0.177 µM)	0.03 (≈ 0.0443 µM)	0.25 (≈ 0.37 µM)	0.06 (≈ 0.0887 µM)	1 (≈ 1.48 µM)	0.03 (≈ 0.0443 µM)	≤ 0.015	2 (≈ 2.96 µM)	0.25 (≈ 0.37 µM)	0.25 (≈ 0.37 µM)	0.03 (≈ 0.0443 µM)	0.12 (≈ 0.177 µM)	0.25 (≈ 0.37 µM)	0.06 (≈ 0.0887 µM)	4 (≈ 5.91 µM)	0.06 (≈ 0.0887 µM)	MIC [21]: 2 µg/mL (≈ 2.96 µM); MIC [22]: ≤ 0.015 µg/mL; MIC [23]: 0.25 µg/mL (≈ 0.37 µM); MIC [24]: 0.06 µg/mL (≈ 0.0887 µM)
Nc1nc(/C(=N/OC(CO)(CCl)C(=O)O)C(=O)N[C@H]2CON(C3(C(=O)O)C[C@H](N4C(=O)c5cc(O)c(O)cc5C4=O)C(=O)O3)C2=O)cs1 (stereo partly drawn) [Cmpd 6, (4S)-2-[(4S)-4-{[(2Z)-2-(2-amino-1,3-thiazol-4-yl)-2-{[(2-carboxy-1-chloro-3-hydroxypropan-2-yl)oxy]imino}acetyl]amino}-3-oxo-1,2-oxazolidin-2-yl]-4-(5,6-dihydroxy-1,3-dioxo-1,3-dihydro-2H-isoindol-2-yl)-5-oxooxolane-2-carboxylic acid]	0.5 (≈ 0.701 µM)	≤ 0.015	1 (≈ 1.4 µM)	≤ 0.015	0.06 (≈ 0.0842 µM)	≤ 0.015	0.25 (≈ 0.351 µM)	0.03 (≈ 0.0421 µM)	1 (≈ 1.4 µM)	0.03 (≈ 0.0421 µM)	≤ 0.015	2 (≈ 2.81 µM)	0.12 (≈ 0.168 µM)	0.25 (≈ 0.351 µM)	≤ 0.015	0.12 (≈ 0.168 µM)	0.12 (≈ 0.168 µM)	0.06 (≈ 0.0842 µM)	1 (≈ 1.4 µM)	≤ 0.015	MIC [21]: 2 µg/mL (≈ 2.81 µM); MIC [22]: ≤ 0.015 µg/mL; MIC [23]: 0.06 µg/mL (≈ 0.0842 µM); MIC [24]: 0.03 µg/mL (≈ 0.0421 µM)
Nc1nc(/C(=N/OC2(C(=O)O)CNC2)C(=O)N[C@H]2CON(C3(C(=O)O)C[C@H](N4C(=O)c5cc(O)c(O)cc5C4=O)C(=O)O3)C2=O)cs1 (stereo partly drawn) [Cmpd 7, 3-({(Z)-[1-(2-amino-1,3-thiazol-4-yl)-2-({(4S)-2-[(4S)-2-carboxy-4-(5,6-dihydroxy-1,3-dioxo-1,3-dihydro-2H-isoindol-2-yl)-5-oxooxolan-2-yl]-3-oxo-1,2-oxazolidin-4-yl}amino)-2-oxoethylidene]amino}oxy)azetidine-3-carboxylic acid]	8 (≈ 11.8 µM)	0.25 (≈ 0.37 µM)	> 16	0.12 (≈ 0.178 µM)	0.5 (≈ 0.74 µM)	0.12 (≈ 0.178 µM)	> 16	0.5 (≈ 0.74 µM)	1 (≈ 1.48 µM)	0.5 (≈ 0.74 µM)	0.12 (≈ 0.178 µM)	> 16	> 16	> 16	0.5 (≈ 0.74 µM)	> 16	1 (≈ 1.48 µM)	0.5 (≈ 0.74 µM)	4 (≈ 5.92 µM)	1 (≈ 1.48 µM)	MIC [21]: 8 µg/mL (≈ 11.8 µM); MIC [22]: 0.12 µg/mL (≈ 0.178 µM); MIC [23]: 1 µg/mL (≈ 1.48 µM); MIC [24]: 0.5 µg/mL (≈ 0.74 µM)
CN1CCC(O/N=C(\C(=O)N[C@H]2CON(C3(C(=O)O)C[C@H](N4C(=O)c5cc(O)c(O)cc5C4=O)C(=O)O3)C2=O)c2csc(N)n2)(C(=O)O)CC1 (stereo partly drawn) [Cmpd 9, 4-({(Z)-[1-(2-amino-1,3-thiazol-4-yl)-2-({(4S)-2-[(4S)-2-carboxy-4-(5,6-dihydroxy-1,3-dioxo-1,3-dihydro-2H-isoindol-2-yl)-5-oxooxolan-2-yl]-3-oxo-1,2-oxazolidin-4-yl}amino)-2-oxoethylidene]amino}oxy)-1-methylpiperidine-4-carboxylic acid]	0.5 (≈ 0.697 µM)	0.12 (≈ 0.167 µM)	> 16	0.03 (≈ 0.0418 µM)	0.5 (≈ 0.697 µM)	0.12 (≈ 0.167 µM)	4 (≈ 5.57 µM)	0.25 (≈ 0.348 µM)	2 (≈ 2.79 µM)	0.25 (≈ 0.348 µM)	0.12 (≈ 0.167 µM)	> 16	4 (≈ 5.57 µM)	8 (≈ 11.1 µM)	0.12 (≈ 0.167 µM)	2 (≈ 2.79 µM)	0.5 (≈ 0.697 µM)	0.25 (≈ 0.348 µM)	2 (≈ 2.79 µM)	0.25 (≈ 0.348 µM)	MIC [21]: 4 µg/mL (≈ 5.57 µM); MIC [22]: 0.12 µg/mL (≈ 0.167 µM); MIC [23]: 0.25 µg/mL (≈ 0.348 µM); MIC [24]: 0.25 µg/mL (≈ 0.348 µM)
Nc1nc(/C(=N/OC2(C(=O)O)CCC(F)(Cl)CC2)C(=O)N[C@H]2CON(C3(C(=O)O)C[C@H](N4C(=O)c5cc(O)c(O)cc5C4=O)C(=O)O3)C2=O)cs1 (stereo partly drawn) [Cmpd 11, (4S)-2-[(4S)-4-{[(2Z)-2-(2-amino-1,3-thiazol-4-yl)-2-{[(1-carboxy-4-chloro-4-fluorocyclohexyl)oxy]imino}acetyl]amino}-3-oxo-1,2-oxazolidin-2-yl]-4-(5,6-dihydroxy-1,3-dioxo-1,3-dihydro-2H-isoindol-2-yl)-5-oxooxolane-2-carboxylic acid]	0.12 (≈ 0.159 µM)	0.03 (≈ 0.0397 µM)	2 (≈ 2.65 µM)	≤ 0.015	0.06 (≈ 0.0795 µM)	0.06 (≈ 0.0795 µM)	0.25 (≈ 0.331 µM)	0.03 (≈ 0.0397 µM)	2 (≈ 2.65 µM)	0.06 (≈ 0.0795 µM)	≤ 0.015	0.25 (≈ 0.331 µM)	0.06 (≈ 0.0795 µM)	2 (≈ 2.65 µM)	0.03 (≈ 0.0397 µM)	0.25 (≈ 0.331 µM)	0.12 (≈ 0.159 µM)	0.06 (≈ 0.0795 µM)	1 (≈ 1.32 µM)	0.03 (≈ 0.0397 µM)	MIC [21]: 2 µg/mL (≈ 2.65 µM); MIC [22]: ≤ 0.015 µg/mL; MIC [23]: 0.06 µg/mL (≈ 0.0795 µM); MIC [24]: 0.12 µg/mL (≈ 0.159 µM)
